Where a SMILES comes first, the peptide text is derived from it.

For the assay, the target named is HLA A*3001 (Homo sapiens, UniProt P04439, D140H/D185E/E176W/F33S/G80R/H175R/K168Q/R138E/R41S). Put plainly: biochemical. The class given is binding.
HLA A*3001, sequence (P04439 25-365 limits assumed, stated change not applied): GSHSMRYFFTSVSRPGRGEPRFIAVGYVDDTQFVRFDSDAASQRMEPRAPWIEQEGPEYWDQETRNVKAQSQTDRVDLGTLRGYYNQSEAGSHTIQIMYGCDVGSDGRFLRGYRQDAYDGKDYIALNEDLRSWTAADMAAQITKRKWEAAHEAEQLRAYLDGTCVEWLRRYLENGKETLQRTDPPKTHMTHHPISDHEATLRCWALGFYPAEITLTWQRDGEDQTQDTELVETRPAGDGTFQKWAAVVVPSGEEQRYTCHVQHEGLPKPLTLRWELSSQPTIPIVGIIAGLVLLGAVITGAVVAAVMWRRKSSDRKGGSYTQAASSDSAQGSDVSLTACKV
Regarding `CC[C@H](C)[C@H](N)C(=O)N[C@H](C(=O)N[C@@H](CCCCN)C(=O)N[C@@H](CO)C(=O)N1CCC[C@H]1C(=O)N[C@@H](Cc1ccc(O)cc1)C(=O)N[C@@H](CCSC)C(=O)N[C@@H](Cc1ccccc1)C(=O)N[C@@H](C)C(=O)O)[C@@H](C)CC` [3102.0003] (H-IIKSPYMFA-OH), the IC50 (in general, the concentration that inhibits the measured activity by half) came out at 6.4 nM. That is a single-digit nanomolar value.

`CC[C@H](C)[C@H](NC(=O)[C@H](CC(C)C)NC(=O)[C@@H](NC(=O)[C@@H](NC(=O)[C@H](CCCNC(=N)N)NC(=O)[C@H](Cc1ccccc1)NC(=O)[C@@H](N)CCCNC(=N)N)[C@@H](C)O)C(C)C)C(=O)N[C@@H](CO)C(=O)N[C@@H](CCCCN)C(=O)O` [3102.0004] (H-RFRTVLISK-OH) gave an IC50 of 4.6 nM.

Consider `CC(C)C[C@H](NC(=O)[C@H](CC(N)=O)NC(=O)[C@H](CC(C)C)NC(=O)[C@H](CCCNC(=N)N)NC(=O)[C@H](CCCNC(=N)N)NC(=O)[C@H](CO)NC(=O)[C@H](CCCCN)NC(=O)[C@H](CO)NC(=O)[C@@H](N)CCCCN)C(=O)O` [3102.0008] (H-KSKSRRLNL-OH), for which half-maximal inhibition (IC50) was put at 13 nM.

`CC(C)C[C@H](NC(=O)[C@H](CC(N)=O)NC(=O)[C@H](CC(C)C)NC(=O)[C@H](CCCNC(=N)N)NC(=O)[C@H](CCCNC(=N)N)NC(=O)[C@H](CO)NC(=O)[C@@H](N)CCCCN)C(=O)N[C@@H](Cc1ccccc1)C(=O)N[C@@H](CO)C(=O)O` [3102.0009] (H-KSRRLNLFS-OH) yielded an IC50 of 3.3 nM.

Regarding `CC[C@H](C)[C@H](NC(=O)[C@H](CCSC)NC(=O)[C@H](CCCCN)NC(=O)[C@@H](NC(=O)[C@@H](N)CC(C)C)C(C)C)C(=O)N[C@@H](CC(N)=O)C(=O)N[C@@H](Cc1c[nH]cn1)C(=O)N[C@@H](CC(C)C)C(=O)N[C@@H](CCCCN)C(=O)O` [3102.0010] (H-LVKMINHLK-OH), the IC50 came out at 42 nM. Against the preceding compound, the IC50 is about 13-fold higher.

With `CSCC[C@H](N)C(=O)N[C@H](C(=O)N[C@@H](CCCNC(=N)N)C(=O)N[C@@H](CC(C)C)C(=O)N[C@H](C(=O)N[C@H](C(=O)N[C@@H](CCC(N)=O)C(=O)NCC(=O)N[C@@H](CC(C)C)C(=O)O)[C@@H](C)O)[C@@H](C)O)C(C)C` [3102.0012] (H-MVRLTTQGL-OH), the IC50 worked out at 8.3 nM.

For `CC[C@H](C)[C@H](NC(=O)[C@@H](N)CCCCN)C(=O)N[C@@H](CCCCN)C(=O)N[C@@H](CO)C(=O)N1CCC[C@H]1C(=O)N[C@H](C(=O)N[C@@H](Cc1ccc(O)cc1)C(=O)N[C@@H](Cc1ccc(O)cc1)C(=O)N[C@@H](CCCCN)C(=O)O)[C@@H](C)CC` [3102.0014] (H-KIKSPIYYK-OH), the IC50 was found to be 0.93 nM.

As to `CC(C)[C@H](NC(=O)[C@@H](N)CCCCN)C(=O)N[C@@H](Cc1ccccc1)C(=O)N[C@H](C(=O)N1CCC[C@H]1C(=O)N[C@@H](C)C(=O)N1CCC[C@H]1C(=O)N[C@@H](Cc1ccccc1)C(=O)NCC(=O)O)C(C)C` [3102.0015] (H-KVFVPAPFG-OH), the IC50 is 6.6 nM.

As for `CC[C@H](C)[C@H](NC(=O)[C@H](CCCCN)NC(=O)[C@@H](NC(=O)[C@@H](N)Cc1c[nH]cn1)[C@@H](C)O)C(=O)N[C@@H](CC(=O)O)C(=O)N[C@@H](CO)C(=O)N[C@@H](CCSC)C(=O)N[C@@H](Cc1ccccc1)C(=O)N[C@@H](CC(C)C)C(=O)O` [3102.0016] (H-HTKIDSMFL-OH), the IC50 was 1.5 nM.

Consider `CC(C)C[C@H](NC(=O)[C@H](CO)NC(=O)[C@@H]1CCCN1C(=O)[C@@H]1CCCN1C(=O)[C@H](CO)NC(=O)[C@@H](NC(=O)[C@@H](N)CCCCN)C(C)C)C(=O)NCC(=O)N[C@@H](CCCCN)C(=O)O` [3102.0017] (H-KVSPPSLGK-OH), for which half-maximal inhibition (IC50) was put at 1.1 nM.

`CC[C@H](C)[C@H](NC(=O)[C@H](C)NC(=O)[C@H](CC(C)C)NC(=O)[C@H](Cc1c[nH]cn1)NC(=O)[C@H](CCC(N)=O)NC(=O)[C@@H](N)Cc1c[nH]cn1)C(=O)N[C@@H](CCSC)C(=O)N[C@@H](Cc1ccccc1)C(=O)N[C@@H](CCCCN)C(=O)O` [3102.0020] (H-HQHLAIMFK-OH) gave a concentration for half-maximal inhibition (IC50) of 5 nM.

Values taken from article PMC2248166, “Quantitative peptide binding motifs for 19 human and mouse MHC class I molecules derived using positional scanning combinatorial peptide libraries” (Immunome Research, 2008).
